Consider 31 compounds from patent US20220348590A1, “CYCLOOXYGENASE-2 INHIBITORS AND USES THEREOF” (The Board Institute, Inc., priority 2019, published 2022).

The experiment concerns the target T1, human recombinant COX2 (hCOX2) (UniProt P35354).
T1 sequence (P35354 1-604): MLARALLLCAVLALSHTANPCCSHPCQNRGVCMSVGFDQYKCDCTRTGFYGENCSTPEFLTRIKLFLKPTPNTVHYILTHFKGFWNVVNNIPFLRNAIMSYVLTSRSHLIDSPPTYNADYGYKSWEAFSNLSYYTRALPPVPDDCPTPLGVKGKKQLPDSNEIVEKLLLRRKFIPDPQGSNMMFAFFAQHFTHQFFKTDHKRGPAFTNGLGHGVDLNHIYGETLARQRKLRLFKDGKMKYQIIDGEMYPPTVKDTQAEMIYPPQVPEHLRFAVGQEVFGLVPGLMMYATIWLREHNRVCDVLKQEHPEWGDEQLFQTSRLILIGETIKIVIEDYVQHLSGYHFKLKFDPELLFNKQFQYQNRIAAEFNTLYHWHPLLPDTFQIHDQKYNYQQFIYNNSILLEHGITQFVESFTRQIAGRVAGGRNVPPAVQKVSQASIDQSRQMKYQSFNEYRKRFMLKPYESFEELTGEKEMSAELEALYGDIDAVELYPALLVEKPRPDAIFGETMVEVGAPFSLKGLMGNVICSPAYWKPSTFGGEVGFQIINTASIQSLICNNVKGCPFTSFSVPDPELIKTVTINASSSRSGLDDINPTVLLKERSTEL
Kind of experiment: LCMS-based COX2 enzymatic inhibition assay (PGE2 quantification). It is filed as biochemical. Set-up: COX2 2 minutes pge2/pge2d4 area ratio Avg; other: 2 minutes; readout pge2/pge2d4 area ratio; average; COX2 2 minutes pge2/pge2d4 area ratio Avg; LLE; average LLE; COX2 2 minutes pge2 area (counts) Avg; readout pge2 area (counts); other: 2 min; "ovine COX2 (oCOX2), human recombinant COX2 (hCOX2)". The note with it: for COX2 2 minutes pge2/pge2d4 area ratio Avg. LLE / COX2 2 minutes pge2 area (counts) Avg. LLE / COX2 10 minutes pge2 area (counts) Avg. LLE: average LLE; for IC50: average. An outline of the steps:
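PGE2 formed from arachidonic acid (final 5 μM, 2 min) was measured by LC-MS-MS against DMSO controls. Enzyme (oCOX-1 0.1 μg or hCOX2 0.2 μg) with hematin/epinephrine cofactors at pH 8.0 was given 10 min at 37 °C with compound first. Twelve-point curves run three times gave IC50.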

Where [1] appears, read: 2 minutes, readout pge2/pge2d4 area ratio.
[2] abbreviates: 2 minutes, readout pge2/pge2d4 area ratio, read-out: COX2 2 minutes pge2/pge2d4 area ratio Avg. IC50.
Where [3] appears, read: 2 minutes, readout pge2 area (counts).
Setting [4] is: 2 minutes, readout pge2 area (counts), read-out: COX2 2 minutes pge2 area (counts) Avg. IC50.
The mark [5] stands for this setting: read-out: COX2 2 minutes pge2/pge2d4 area ratio Avg. IC50 (microM), 2 minutes, readout pge2/pge2d4 area ratio.
The mark [6] stands for this setting: 10 minutes, readout pge2 area (counts).
[7] abbreviates: 10 minutes, readout pge2 area (counts), read-out: COX2 10 minutes pge2 area (counts) Avg. IC50.

Like-named read-outs stand apart in the source and are kept apart here.

Take `COc1ccc(NCc2ccco2)nc1-c1ccc(S(C)(=O)=O)cc1` [Compound 149]: the “COX2 2 minutes pge2/pge2d4 area ratio Avg. LLE” value under setting [1] is 4.057. Also, the IC50 worked out at 0.272 µM under setting [2] and 0.285 µM under setting [4]. For the same compound, the “COX2 2 minutes pge2 area (counts) Avg. LLE” value (“COX2 2 minutes pge2 area” below) under setting [3] is recorded as 4.033.

Regarding `CS(=O)(=O)c1ccc(-c2cccc(Nc3ccccc3)n2)cc1` [Compound 194], the “COX2 2 minutes pge2/pge2d4 area ratio Avg. LLE” value under setting [1] came to 2.607. Moreover, the IC50 amounted to 0.883 µM under setting [2] and 1.04 µM under setting [4]. Also, the “COX2 2 minutes pge2 area” value under setting [3] worked out at 2.538.

Regarding `CS(=O)(=O)c1ccc(-c2ccc3c(ncn3Cc3cccs3)n2)cc1` [Compound 308], the IC50 under setting [5] worked out at 5.2 µM.

Regarding `CS(=O)(=O)c1ccc(-c2cncc(NC[C@@H]3CCCO3)n2)cc1` [Compound 224], the “COX2 2 minutes pge2/pge2d4 area ratio Avg. LLE” value under setting [1] was 4.828. For the same compound, the IC50 runs as follows: under setting [2], 1.94 µM; under setting [4], 1.84 µM. For the same compound, the “COX2 2 minutes pge2 area” value under setting [3] is reported as 4.821.

Turning to `CS(=O)(=O)c1ccc(-c2cc(NCc3ccco3)ncn2)cc1` [Compound 277], the IC50 under setting [2] was 5.2 µM.

On to `CS(=O)(=O)c1ccc(-c2cnc(C(F)(F)F)c(OCc3cccs3)n2)cc1` [Compound 118], for which the “COX2 2 minutes pge2/pge2d4 area ratio Avg. LLE” value under setting [1] is 3.641. Moreover, the IC50 stood at 0.114 µM under setting [2] and 0.153 µM under setting [4]. In addition, the “COX2 2 minutes pge2 area” value under setting [3] is listed as 3.56.

As for `CSc1ccc(-c2cccc(NCc3ccco3)n2)cc1` [Compound 282], under setting [1], the “COX2 2 minutes pge2/pge2d4 area ratio Avg. LLE” value turned out to be 1.004. The “COX2 2 minutes pge2 area” value under setting [3] was 1.004. Further, the IC50 under setting [5] is 5.2 µM.

Take `CS(=O)(=O)c1ccc(-c2cncc(OCC3CC3)n2)cc1` [Compound 273]: the “COX2 2 minutes pge2/pge2d4 area ratio Avg. LLE” value under setting [1] was 3.734. Moreover, the “COX2 2 minutes pge2 area” value under setting [3] is 3.734. Under setting [5], the IC50 was determined as 5.2 µM.

Consider `CN1CCN(c2cncc(-c3ccc(S(C)(=O)=O)cc3)n2)CC1` [Compound 287], for which the “COX2 2 minutes pge2/pge2d4 area ratio Avg. LLE” value under setting [1] worked out at 5.044. For the same compound, under setting [3], the “COX2 2 minutes pge2 area” value amounted to 5.044. Moreover, the “COX2 10 minutes pge2 area (counts) Avg. LLE” value (from here on “COX2 10 minutes pge2 area”) under setting [6] was 5.574. Further, the IC50 runs as follows: under setting [7], 1.54 µM; under setting [5], 5.2 µM.

For the compound `CS(=O)(=O)c1ccc(-c2cccc(NCc3ncco3)n2)cc1` [Compound 231], the “COX2 2 minutes pge2/pge2d4 area ratio Avg. LLE” value under setting [1] worked out at 3.1763. The IC50 reads like this: under setting [2], 2.4 µM; under setting [4], 2.73 µM. The “COX2 2 minutes pge2 area” value under setting [3] is recorded as 3.075.

Turning to `CS(=O)(=O)c1ccc(-c2cnc(N)c(OCc3cccs3)n2)cc1` [Compound 86], the “COX2 2 minutes pge2/pge2d4 area ratio Avg. LLE” value under setting [1] was determined as 5.134. Besides, the IC50 runs as follows: under setting [2], 0.061 µM; under setting [4], 0.0682 µM. Further, the “COX2 2 minutes pge2 area” value under setting [3] turned out to be 5.087.

With `COc1ncc(-c2ccc(S(C)(=O)=O)cc2)nc1NCc1ccccn1` [Compound 260], the “COX2 2 minutes pge2/pge2d4 area ratio Avg. LLE” value under setting [1] stood at 4.221. Besides, the IC50 under setting [2] came out at 4.26 µM and the IC50 under setting [4] worked out at 2.35 µM. Further, the “COX2 2 minutes pge2 area” value under setting [3] came to 4.307.

As to `CS(=O)(=O)c1ccc(-c2coc3ccc(NCc4ccoc4)nc23)cc1` [Compound 55], the IC50 under setting [2] was determined as 0.0305 µM and the IC50 under setting [4] amounted to 0.0265 µM.

For the compound `CS(=O)(=O)c1ccc(-c2cncc(OCc3nccs3)c2)cc1` [Compound 289], the “COX2 2 minutes pge2/pge2d4 area ratio Avg. LLE” value under setting [1] was 2.234. For the same compound, under setting [3], the “COX2 2 minutes pge2 area” value is 2.234. The IC50 under setting [5] came out at 5.2 µM.

Take `CS(=O)(=O)c1ccc(-c2cccc(NC(=O)c3cccs3)n2)cc1` [Compound 302]: under setting [5], the IC50 worked out at 5.2 µM.

In the case of `NS(=O)(=O)c1ccc(-c2cncc(NCc3cccs3)n2)cc1` [Compound 106], the “COX2 2 minutes pge2/pge2d4 area ratio Avg. LLE” value under setting [1] amounted to 5.5926. Besides, the IC50 by setting is: under setting [2], 0.0916 µM; under setting [4], 0.0665 µM. In addition, the “COX2 2 minutes pge2 area” value under setting [3] amounted to 5.699.

Take `CS(=O)(=O)c1ccc(-c2cccc([C@@H](O)Cc3cccs3)n2)cc1` [Compound 205]: under setting [1], the “COX2 2 minutes pge2/pge2d4 area ratio Avg. LLE” value is given as 3.07. Besides, the IC50 is, setting by setting: under setting [2], 1.25 µM; under setting [4], 1.06 µM. For the same compound, the “COX2 2 minutes pge2 area” value under setting [3] amounted to 3.131.

Take `CS(=O)(=O)c1ccc(-c2cncc(NCc3cnco3)n2)cc1` [Compound 215]: under setting [1], the “COX2 2 minutes pge2/pge2d4 area ratio Avg. LLE” value is 4.859. Also, the IC50 was found to be 1.53 µM under setting [2] and 1.58 µM under setting [4]. For the same compound, under setting [3], the “COX2 2 minutes pge2 area” value is listed as 4.845.

For the compound `COc1ncc(NCc2nccs2)nc1-c1ccc(S(C)(=O)=O)cc1` [Compound 107], under setting [1], the “COX2 2 minutes pge2/pge2d4 area ratio Avg. LLE” value worked out at 4.932. Also, the IC50 by setting is: under setting [2], 0.0933 µM; under setting [4], 0.0881 µM. In addition, the “COX2 2 minutes pge2 area” value under setting [3] was 4.948.

Consider `CS(=O)(=O)c1ccc(-c2cccc(C(=O)C(=O)c3cccs3)n2)cc1` [Compound 190], for which the “COX2 2 minutes pge2/pge2d4 area ratio Avg. LLE” value under setting [1] is listed as 3.528. The IC50 is, setting by setting: under setting [2], 0.711 µM; under setting [4], 0.774 µM. In addition, the “COX2 2 minutes pge2 area” value under setting [3] came to 3.498.

For `CS(=O)(=O)c1ccc(-c2cnc3ncn(Cc4cccs4)c3n2)cc1` [Compound 210], the “COX2 2 minutes pge2/pge2d4 area ratio Avg. LLE” value under setting [1] was 2.8514. Further, the IC50 under setting [2] worked out at 1.41 µM, the IC50 under setting [4] is 1.17 µM and the IC50 under setting [7] was 0.112 µM. The “COX2 2 minutes pge2 area” value under setting [3] was determined as 2.964. Moreover, the “COX2 10 minutes pge2 area” value under setting [6] was determined as 3.939.

Consider `CS(=O)(=O)c1ccc(-c2nc(NCc3cccs3)no2)cc1` [Compound 327], for which the IC50 under setting [5] was found to be 5.2 µM.

Turning to `CS(=O)(=O)c1ccc(-c2cncc(NCc3ccc(F)nc3)n2)cc1` [Compound 208], the “COX2 2 minutes pge2/pge2d4 area ratio Avg. LLE” value under setting [1] is 4.4967. Moreover, the IC50 turned out to be 1.34 µM under setting [2], 1.31 µM under setting [4] and 0.357 µM under setting [7]. Moreover, the “COX2 2 minutes pge2 area” value under setting [3] is reported as 4.501. Besides, the “COX2 10 minutes pge2 area” value under setting [6] came out at 5.151.

Consider `CC(C)(C)OC(=O)N(c1ccoc1)c1cccc(-c2ccc(S(C)(=O)=O)cc2)n1` [Compound 296], for which, under setting [5], the IC50 was found to be 5.2 µM.

With `CS(=O)(=O)c1ccc(-c2nc3cnn(Cc4cccs4)c3[nH]2)cc1` [Compound 256], the IC50 runs as follows: under setting [2], 4.04 µM; under setting [4], 4.56 µM.

On to `CS(=O)(=O)c1ccc(-c2cc(OCc3cccs3)ccn2)cc1` [Compound 315], for which, under setting [5], the IC50 is 5.2 µM.

For the compound `COc1cncc(-c2ccc(S(C)(=O)=O)cc2)n1` [Compound 299], under setting [6], the “COX2 10 minutes pge2 area” value is 5.551. For the same compound, the IC50 was 0.489 µM under setting [7] and 5.2 µM under setting [5].

As to `COc1ncc(NCc2cccs2)nc1-c1ccc(S(C)(=O)=O)cn1` [Compound 128], the “COX2 2 minutes pge2/pge2d4 area ratio Avg. LLE” value under setting [1] came out at 5.784. Further, the IC50 was 0.144 µM under setting [2] and 0.139 µM under setting [4]. Besides, the “COX2 2 minutes pge2 area” value under setting [3] was found to be 5.809.

Take `CS(=O)(=O)c1ccc(-c2cncc(N3CCc4ccccc4C3)n2)cc1` [Compound 324]: the IC50 under setting [5] worked out at 5.2 µM.

Consider `CS(=O)(=O)c1ccc(-c2cccc([S@@+]([O-])Cc3cccs3)n2)cc1` [Compound 266], for which the “COX2 2 minutes pge2/pge2d4 area ratio Avg. LLE” value under setting [1] is 2.95. The IC50 under setting [2] is 4.84 µM. For the same compound, the “COX2 2 minutes pge2 area” value under setting [3] came out at 2.934.

As for `COc1ncc(NCc2cccs2)cc1-c1ccc(S(C)(=O)=O)cc1` [Compound 196], the “COX2 2 minutes pge2/pge2d4 area ratio Avg. LLE” value under setting [1] stood at 2.588. Also, the IC50 reads like this: under setting [2], 0.887 µM; under setting [4], 1.02 µM. In addition, under setting [3], the “COX2 2 minutes pge2 area” value was 2.528.
